Experimental data as given in patent publication US20120101032A1, “NOVEL MACROCYCLIC INHIBITORS OF HEPATITIS C VIRUS REPLICATION” (priority 2010, published 2012).

Columns and labels:
hepatitis C replicon = hepatitis C replicon EC50 assay; assay type: cell-based; conditions: Hepatitis C virus; hepatitis C replicon; read-out: EC50
Text: NS3-NS4 inhibition activity can be determined using known assay methods.

NS3/NS4 complexes = NS3/NS4 complexes (Hepatitis C virus genotype 1a, UniProt P27958); assay: biochemical; conditions: NS3-NS4 activity; 23° C., pH 7.5, 25 μM NS4A peptide; read-out: IC50
Text: NS3-NS4 inhibition activity can be determined using known assay methods. For example, NS3/NS4 complexes may be formed and inhibitory concentrations of test compounds determined as described in U.S. Patent Application Publication Number 2007/0054842 paragraph numbers 1497-1509, which is incorporated herein by reference in its entirety. Similarly, hepatitis C replicon EC50 may be determined using known assay methods such as described in U.S. Patent Application Publication Number 2007/0054842 paragraph numbers 1510-1515, which is incorporated herein by reference in its entirety. Assays may be conducted at ambient temperature (23° C.) in assay buffer containing 50 mM Tris-HCl, pH 7.5, 15% glycerol, 0.6 mM Lauryldimethylamine Oxide (LDAO), 25 μM NS4A peptide, and 10 mM Dithiothreitol (DTT).

NS3/NS4 complexes, sequence (P27958 1027-1657, one chain of several): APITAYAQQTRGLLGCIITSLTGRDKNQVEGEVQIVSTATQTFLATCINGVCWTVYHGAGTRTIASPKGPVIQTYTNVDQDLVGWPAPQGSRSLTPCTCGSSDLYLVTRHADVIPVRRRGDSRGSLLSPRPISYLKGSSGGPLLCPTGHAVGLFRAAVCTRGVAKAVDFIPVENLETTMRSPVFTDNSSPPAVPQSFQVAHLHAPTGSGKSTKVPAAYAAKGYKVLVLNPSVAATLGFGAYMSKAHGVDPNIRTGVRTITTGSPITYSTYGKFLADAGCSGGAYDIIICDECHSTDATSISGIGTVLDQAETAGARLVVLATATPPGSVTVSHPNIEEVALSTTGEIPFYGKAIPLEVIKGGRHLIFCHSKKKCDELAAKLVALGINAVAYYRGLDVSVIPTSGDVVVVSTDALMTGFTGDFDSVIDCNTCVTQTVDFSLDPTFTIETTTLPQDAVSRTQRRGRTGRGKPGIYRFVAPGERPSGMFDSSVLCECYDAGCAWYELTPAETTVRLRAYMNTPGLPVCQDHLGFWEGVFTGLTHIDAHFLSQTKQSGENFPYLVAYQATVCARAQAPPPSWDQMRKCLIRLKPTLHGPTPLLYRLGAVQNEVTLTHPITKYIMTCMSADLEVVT

In the case of CC(C)n1c(O[C@@H]2C[C@H]3C(=O)N[C@]4(C(=O)NS(=O)(=O)C5(C)CC5)C[C@H]4/C=C\CCCCC[C@H](NC(=O)OC(C)(C)C)C(=O)N3C2)nc2c(-c3nc(-c4cccc(Cl)c4)cs3)cccc21 [Compound 101], the EC50 (hepatitis C replicon) is reported as 10 to 100 nM and the IC50 (NS3/NS4 complexes) is reported as less than 10 nM.
COc1ccccc1-c1csc(-c2cccc3c2nc(O[C@@H]2C[C@H]4C(=O)N[C@]5(C(=O)NS(=O)(=O)C6(C)CC6)C[C@H]5/C=C\CCCCC[C@H](NC(=O)OC(C)(C)C)C(=O)N4C2)n3C(C)C)n1 [Compound 102] was tested, and the EC50 (hepatitis C replicon) was less than 10 nM and the IC50 (NS3/NS4 complexes) was less than 10 nM.
COc1cccc(-c2csc(-c3cccc4c3nc(O[C@@H]3C[C@H]5C(=O)N[C@]6(C(=O)NS(=O)(=O)C7(C)CC7)C[C@H]6/C=C\CCCCC[C@H](NC(=O)OC(C)(C)C)C(=O)N5C3)n4C(C)C)n2)c1 [Compound 103] showed an EC50 (hepatitis C replicon) of less than 10 nM and an IC50 (NS3/NS4 complexes) of less than 10 nM.
CC(C)n1c(O[C@@H]2C[C@H]3C(=O)N[C@]4(C(=O)NS(=O)(=O)C5(C)CC5)C[C@H]4/C=C\CCCCC[C@H](NC(=O)OC(C)(C)C)C(=O)N3C2)nc2c(-c3nc(-c4cccc(F)c4)cs3)cccc21 [Compound 104] was tested, and the EC50 (hepatitis C replicon) was 10 to 100 nM and the IC50 (NS3/NS4 complexes) was less than 10 nM.
Work on CC(C)n1c(O[C@@H]2C[C@H]3C(=O)N[C@]4(C(=O)NS(=O)(=O)C5(C)CC5)C[C@H]4/C=C\CCCCC[C@H](NC(=O)OC(C)(C)C)C(=O)N3C2)nc2c(-c3nc(-c4ccc(Br)cc4)cs3)cccc21 [Compound 106] yielded an EC50 (hepatitis C replicon) greater than 100 nM and an IC50 (NS3/NS4 complexes) of less than 10 nM.
CC(C)n1c(O[C@@H]2C[C@H]3C(=O)N[C@]4(C(=O)NS(=O)(=O)C5(C)CC5)C[C@H]4/C=C\CCCCC[C@H](NC(=O)OC(C)(C)C)C(=O)N3C2)nc2c(-c3nc(-c4ccc(Cl)c(Cl)c4)cs3)cccc21 [Compound 107] gave an EC50 (hepatitis C replicon) of 10 to 100 nM and an IC50 (NS3/NS4 complexes) of less than 10 nM.
In the case of CC(C)n1c(O[C@@H]2C[C@H]3C(=O)N[C@]4(C(=O)NS(=O)(=O)C5(C)CC5)C[C@H]4/C=C\CCCCC[C@H](NC(=O)OC(C)(C)C)C(=O)N3C2)nc2c(-c3nc(-c4ccc(F)c(F)c4)cs3)cccc21 [Compound 108], the EC50 (hepatitis C replicon) is reported as less than 10 nM and the IC50 (NS3/NS4 complexes) is reported as less than 10 nM.
Compound CC(C)n1c(O[C@@H]2C[C@H]3C(=O)N[C@]4(C(=O)NS(=O)(=O)C5(C)CC5)C[C@H]4/C=C\CCCCC[C@H](NC(=O)OC(C)(C)C)C(=O)N3C2)nc2c(-c3nc(-c4ccc(F)c(C(F)(F)F)c4)cs3)cccc21 [Compound 109] has an EC50 (hepatitis C replicon) of 10 to 100 nM and an IC50 (NS3/NS4 complexes) of less than 10 nM.
Compound CC(C)n1c(O[C@@H]2C[C@H]3C(=O)N[C@]4(C(=O)NS(=O)(=O)C5(C)CC5)C[C@H]4/C=C\CCCCC[C@H](NC(=O)OC(C)(C)C)C(=O)N3C2)nc2c(-c3nc(-c4ccc(OC(F)(F)F)cc4)cs3)cccc21 [Compound 110] has an EC50 (hepatitis C replicon) greater than 100 nM and an IC50 (NS3/NS4 complexes) of less than 10 nM.
In the case of CC(C)n1c(O[C@@H]2C[C@H]3C(=O)N[C@]4(C(=O)NS(=O)(=O)C5(C)CC5)C[C@H]4/C=C\CCCCC[C@H](NC(=O)OC(C)(C)C)C(=O)N3C2)nc2c(-c3nc(-c4ccc(F)cc4F)cs3)cccc21 [Compound 111], the EC50 (hepatitis C replicon) is reported as 10 to 100 nM and the IC50 (NS3/NS4 complexes) is reported as less than 10 nM.
For CC(C)n1c(O[C@@H]2C[C@H]3C(=O)N[C@]4(C(=O)NS(=O)(=O)C5(C)CC5)C[C@H]4/C=C\CCCCC[C@H](NC(=O)OC(C)(C)C)C(=O)N3C2)nc2c(-c3nc(-c4ccc5c(c4)OCCO5)cs3)cccc21 [Compound 112], the EC50 (hepatitis C replicon) was less than 10 nM and the IC50 (NS3/NS4 complexes) was less than 10 nM.
For CC(C)n1c(O[C@@H]2C[C@H]3C(=O)N[C@]4(C(=O)NS(=O)(=O)C5(C)CC5)C[C@H]4/C=C\CCCCC[C@H](NC(=O)OC(C)(C)C)C(=O)N3C2)nc2c(-c3nc(-c4ccc(C(C)(C)C)cc4)cs3)cccc21 [Compound 113], the EC50 (hepatitis C replicon) was 10 to 100 nM and the IC50 (NS3/NS4 complexes) was less than 10 nM.
In the case of Cc1ccccc1Cc1csc(-c2cccc3c2nc(O[C@@H]2C[C@H]4C(=O)N[C@]5(C(=O)NS(=O)(=O)C6(C)CC6)C[C@H]5/C=C\CCCCC[C@H](NC(=O)OC(C)(C)C)C(=O)N4C2)n3C(C)C)n1 [Compound 114], the EC50 (hepatitis C replicon) is reported as less than 10 nM and the IC50 (NS3/NS4 complexes) is reported as less than 10 nM.
COc1ccccc1Cc1csc(-c2cccc3c2nc(O[C@@H]2C[C@H]4C(=O)N[C@]5(C(=O)NS(=O)(=O)C6(C)CC6)C[C@H]5/C=C\CCCCC[C@H](NC(=O)OC(C)(C)C)C(=O)N4C2)n3C(C)C)n1 [Compound 115] showed an EC50 (hepatitis C replicon) of less than 10 nM and an IC50 (NS3/NS4 complexes) of less than 10 nM.
